# Target: IscU (Azotobacter vinelandii, UniProt O31270)
# Test: UV/Vis absorption and visible CD during in vitro Fe-S cluster assembly
# Assay type: binding
# Conditions: anaerobic, IscS, Cys, DTT, cluster assembled in situ
# Sequence of IscU (O31270 whole entry): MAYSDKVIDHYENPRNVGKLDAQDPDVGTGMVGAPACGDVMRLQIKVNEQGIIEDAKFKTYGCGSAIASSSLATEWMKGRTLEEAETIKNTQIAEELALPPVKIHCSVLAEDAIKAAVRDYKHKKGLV
smiles,measurement,value
[S]1[Fe][S][Fe]1 [[2Fe-2S] cluster],UV/Vis absorption and visible CD during in vitro Fe-S cluster assembly,shows the formation of the [2Fe-2S] cluster as previously reported for IscU (A)
